From ChEMBL document CHEMBL5352469, “Solubility-driven optimization of benzothiopyranone salts leading to a preclinical candidate with improved pharmacokinetic properties and activity against Mycobacterium tuberculosis” (Eur J Med Chem, 2023)
In brackets after ≈: the same amount, converted by molar mass.

Assays:
[1] = Tmax in Balb/c mouse at 50 mg/kg, po measured upto 24 hrs by LC/MS/MS analysis; format: ADME, organism-based; conditions: in vivo
[2] = AUC (0 to t) in Balb/c mouse at 50 mg/kg, po measured upto 24 hrs by LC/MS/MS analysis; format: ADME, organism-based; set-up: dose 50 mg/kg, time < 24 hrs, route po; conditions: in vivo, 24 h
[3] = Lipophilicity, log D of the compound in octanol/water at pH 7.6 incubated for 72 hrs under shaking condition by shake flask based HPLC-PDA method; format: physicochemical; conditions: pH 7.6, 72 h
[4] = tested on: Mycobacterium tuberculosis; assay: Antibacterial activity against Mycobacterium tuberculosis H37Rv BALB/c mouse model assessed as reduction in delta CFU in lungs at 50 mg/kg via oral gavage for 30 days; format: functional; conditions: time 30 day
[5] = Elimination half life in Balb/c mouse at 5 mg/kg, iv measured upto 24 hrs by LC/MS/MS analysis; format: ADME, organism-based; conditions: in vivo, read-out: beta t1/2 (converted)
[6] = MRT (0 to infinity) in Sprague-Dawley rat at 50 mg/kg, po measured upto 24 hrs by LC/MS/MS analysis; format: ADME, organism-based; conditions: in vivo
[7] = Chemical stability of the compound under 60 degree C high temperature by measuring compound purity incubated for 10 days by HPLC-PDA method analysis relative to initial purity; format: physicochemical; conditions: 240 h; time 10 day
[8] = tested on: Mycobacterium tuberculosis; assay: Antibacterial activity against Mycobacterium tuberculosis H37Rv BALB/c mouse model assessed as reduction in delta CFU in lungs at 100 mg/kg via oral gavage for 30 days; format: functional; conditions: time 30 day
[9] = Aqueous solubility of compound by HPLC-PDA method; format: physicochemical; conditions: buffer; read-out: solubility
[10] = Cmax in Sprague-Dawley rat at 5 mg/kg, iv measured upto 24 hrs by LC/MS/MS analysis; format: ADME, organism-based; set-up: time < 24 hrs, dose 5 mg/kg, route iv; conditions: in vivo
[11] = AUC (0 to t) in Balb/c mouse at 5 mg/kg, iv measured upto 24 hrs by LC/MS/MS analysis; format: ADME, organism-based; set-up: time < 24 hrs, dose 5 mg/kg, route iv; conditions: in vivo, 24 h
[12] = Efflux ratio of apparent permeability across basolateral to apical side over apical to basolateral side in human Caco-2 cells; format: ADME, cell-based
[13] = Apparent permeability across apical to basolateral side in human Caco-2 cells incubated for 21 days; format: ADME, cell-based; conditions: time 21 day
[14] = Chemical stability of the compound under 92.5% humidity by measuring compound purity incubated for 10 days by HPLC-PDA method relative to initial purity; format: physicochemical; conditions: 240 h; time 10 day
[15] = Oral bioavailability in Balb/c mouse at 50 mg/kg measured upto 24 hrs by LC/MS/MS analysis; format: ADME, organism-based; conditions: in vivo, po, 50 mg/kg, 24 h
[16] = Lipophilicity, log D of the compound in octanol/water at pH 6.8 incubated for 72 hrs under shaking condition by shake flask based HPLC-PDA method; format: physicochemical; conditions: pH 6.8, 72 h
[17] = tested on: Mycobacterium tuberculosis; assay: Antibacterial activity against Mycobacterium tuberculosis H37Rv BALB/c mouse model assessed as reduction in CFU in lungs at 25 mg/kg via oral gavage for 30 days (reference value: 5.92 +/-0.29); format: functional; conditions: time 30 day
[18] = Apparent permeability across basolateral to apical side in human Caco-2 cells incubated for 21 days; format: ADME, cell-based; conditions: time 21 day
[19] = Elimination half life in Balb/c mouse at 50 mg/kg, po measured upto 24 hrs by LC/MS/MS analysis; format: ADME, organism-based; conditions: in vivo, read-out: beta t1/2 (converted)
[20] = tested on: Mycobacterium tuberculosis; assay: Antibacterial activity against Mycobacterium tuberculosis H37Rv BALB/c mouse model assessed as reduction in delta CFU in lungs at 25 mg/kg via oral gavage for 30 days; format: functional; conditions: time 30 day
[21] = Cmax in Sprague-Dawley rat at 50 mg/kg, po measured upto 24 hrs by LC/MS/MS analysis; format: ADME, organism-based; set-up: time < 24 hrs, dose 50 mg/kg, route po; conditions: in vivo
[22] = Elimination half life in Sprague-Dawley rat at 5 mg/kg, iv measured upto 24 hrs by LC/MS/MS analysis; format: ADME, organism-based; conditions: in vivo, read-out: beta t1/2 (converted)
[23] = MRT (0 to infinity) in Sprague-Dawley rat at 5 mg/kg, iv measured upto 24 hrs by LC/MS/MS analysis; format: ADME, organism-based; conditions: in vivo
[24] = Tmax in Sprague-Dawley rat at 50 mg/kg, po measured upto 24 hrs by LC/MS/MS analysis; format: ADME, organism-based; conditions: in vivo
[25] = AUC (0 to t) in Sprague-Dawley rat at 50 mg/kg, po measured upto 24 hrs by LC/MS/MS analysis; format: ADME, organism-based; set-up: dose 50 mg/kg, time < 24 hrs, route po; conditions: in vivo
[26] = Chemical stability of the compound under 4500 +/- 500 lx light condition by measuring compound purity incubated for 10 days by HPLC-PDA method relative to initial purity; format: physicochemical; conditions: 240 h; time 10 day
[27] = tested on: Mycobacterium tuberculosis; assay: Antibacterial activity against Mycobacterium tuberculosis H37Rv BALB/c mouse model assessed as reduction in CFU in lungs at 100 mg/kg via oral gavage for 30 days (reference value: 5.92 +/-0.29); format: functional; conditions: time 30 day
[28] = Elimination half life in Sprague-Dawley rat at 50 mg/kg, po measured upto 24 hrs by LC/MS/MS analysis; format: ADME, organism-based; conditions: in vivo, read-out: beta t1/2 (converted)
[29] = tested on: Mycobacterium tuberculosis; assay: Antibacterial activity against Mycobacterium tuberculosis H37Rv BALB/c mouse model assessed as reduction in CFU in lungs at 50 mg/kg via oral gavage for 30 days (reference value: 5.92 +/-0.29); format: functional; conditions: time 30 day
[30] = Cmax in Balb/c mouse at 5 mg/kg, iv measured upto 24 hrs by LC/MS/MS analysis; format: ADME, organism-based; set-up: dose 5 mg/kg, time < 24 hrs, route iv; conditions: in vivo
[31] = Clearance in Sprague-Dawley rat at 5 mg/kg, iv measured upto 24 hrs by LC/MS/MS analysis; format: ADME, organism-based; conditions: in vivo
[32] = Lipophilicity, log D of the compound in octanol/water at pH 4.0 incubated for 72 hrs under shaking condition by shake flask based HPLC-PDA method; format: physicochemical; conditions: pH 4, 72 h
[33] = Oral bioavailability in Sprague-Dawley rat at 50 mg/kg measured upto 24 hrs by LC/MS/MS analysis; format: ADME, organism-based; conditions: in vivo
[34] = Lipophilicity, log D of the compound in octanol/water at pH 2.0 incubated for 72 hrs under shaking condition by shake flask based HPLC-PDA method; format: physicochemical; conditions: pH 2, 72 h
[35] = Lipophilicity, log P of the compound in octanol/water incubated for 72 hrs under shaking condition by shake flask based HPLC-PDA method; format: physicochemical; conditions: 72 h
[36] = AUC (0 to infinity) in Sprague-Dawley rat at 50 mg/kg, po measured upto 24 hrs by LC/MS/MS analysis; format: ADME, organism-based; set-up: time < 24 hrs, dose 50 mg/kg, route po; conditions: in vivo
[37] = AUC (0 to infinity) in Sprague-Dawley rat at 5 mg/kg, iv measured upto 24 hrs by LC/MS/MS analysis; format: ADME, organism-based; set-up: time < 24 hrs, dose 5 mg/kg, route iv; conditions: in vivo
[38] = AUC (0 to t) in Sprague-Dawley rat at 5 mg/kg, iv measured upto 24 hrs by LC/MS/MS analysis; format: ADME, organism-based; set-up: time < 24 hrs, dose 5 mg/kg, route iv; conditions: in vivo
[39] = Cmax in Balb/c mouse at 50 mg/kg, po measured upto 24 hrs by LC/MS/MS analysis; format: ADME, organism-based; set-up: time < 24 hrs, dose 50 mg/kg, route po; conditions: in vivo

O=c1cc(N2CCN(CC3CCCCC3)CC2)sc2c([N+](=O)[O-])cc(C(F)(F)F)cc12
Tmax [1]: 0.5 h
AUCt [2]: 1581 ng·h/mL
logD [3]: > 4.32
Activity [4]: 3.58 log10CFU
half-life [5]: 6.54 h
MRT inf [6]: 5.94 h
Stability [7]: 100%
Activity [8]: 3.73 log10CFU
solubility [9]: 0.15 µg/mL (≈ 0.329 µM)
Cmax [10]: 3560 ng/mL
AUCt [11]: 4954 ng·h/mL
efflux ratio [12]: 0.1
Papp A→B [13]: 11.8 ×10⁻⁶ cm/s
Stability [14]: 100%
F [15]: 13.1%
logD [16]: > 4.3
Activity [17]: 3.64 log10CFU
Papp B→A [18]: 0.69 ×10⁻⁶ cm/s
half-life [19]: 7.25 h
Activity [20]: 2.28 log10CFU
Cmax [21]: 109 ng/mL
half-life [22]: 8.27 h
MRT inf [23]: 2.99 h
Tmax [24]: 3.67 h
AUC(0-t) at 24 h [25]: 741 ng·h/mL
Stability [26]: 98.2%
Activity [27]: 2.19 log10CFU
half-life [28]: 3.83 h
Activity [29]: 2.34 log10CFU
Cmax [30]: 8240 ng/mL
clearance [31]: 53.8 mL/min/kg
logD [32]: 3.72
bioavailability [33]: 4.87%
logD [34]: 1.29
logP [35]: 3.71
AUC(0-inf) [36]: 769 ng·h/mL
AUC(0-inf) [37]: 1580 ng·h/mL
AUC(0-t) at 24 h [38]: 1540 ng·h/mL
Cmax [39]: 588 ng/mL
